In patent US4272529A, “O-Alcoxycarbonylphenyl esters of anthranilic acid with therapeutical activity, method for their preparation and related pharmaceutical composition” (Simes S.p.A., priority 1979, dated 1981):
Where “and” joins values, the source holds several entries; their conditions need not be identical. Identical values can stand only once. Like-named read-outs stand apart in the source and are kept apart here.

Tests used:
[1] = tested on: adjuvant induced arthritis in the rat; conditions: for Non injected paw, 18th day, inhibition % / Non injected paw, 18th day, volume: daily 14th to 18th day
Description: (§1) According to the second experimental model of adjuvant induced arthritis, there were studied the effects of the tested compounds in the disease already developed for 14 days; the substances were daily administered to groups of six rats for each dosage, from the 14th to the 18th day. […] There was also investigated the irritating property of the compound with respect to the gastric tissues in the rat.

[2] = tested on: carrageenin induced edema in the rat; experiment: Inhibition of the carrageenin induced edema in the rat, further series (right rear paw vs left rear paw); format: in vivo; conditions: for Inhibition of the carrageenin induced edema: 3 hours after carrageenin
Description: The volume difference between the two paws was compared with the values of a control group. In this case too, the carrageenin was injected one hour after the oral administration of the substances being tested as an aqueous suspension; the edema was evaluated 3 hours after the carrageenin injection.

[3] = tested on: adjuvant induced arthritis in the rat; experiment: Adjuvant induced arthritis in the developing phase; format: in vivo, Lewis rats; conditions: for Paw volume, injected paw (3rd day) / Paw volume, non injected paw (14th day): unit assumed
Description: In the first one, relating to the developing arthritis (Table 4), groups of six Lewis rats have been tested for each dosage; a group was used as the control. Suspensions of the compound being tested were administered for 14 days, starting on the same day of the adjuvant inoculation (0.3 mg of Mycobacterium butyricum in 0.1 ml of mineral oil) in the plantar surface of the right rear paw. The body weights and the volumes of both paws were measured at the third and fourteenth days; the body weights were taken as the toxicity indexes; the paw volumes were used for the calculation of the percent inhibition of the swelling as determined by the adjuvant induced arthritis (D. Walz et al., J. Pharmacol. Exper. Therap., 178, 223, 1971).

[4] = tested on: gastric tissues in the rat
Description: as §1
The substances were administered as an aqueous suspension and the animals ware sacrificed after either 4 or 24 hours; the stomachs were removed, opened, washed under tap water and examined.
As regards the 4 hour test (Table 7), the following scoring was used, relating to the hemorrhage degree:
1=one or two points of light hemorrhage
2=some points of light hemorrhage
4=very serious hemorrhages.
In this case too the sum of the scores of three rats for each dosage is reported.

[5] = tested on: gastric tissues in the rat; experiment: Acute gastric irritation in the rat (24 hours); format: in vivo; conditions: for Acute gastric irritation score: sum of scores (0-4) of three rats
Description: The following score scale was used for the 24 hour test (Table 6): 0=no lesion or hemorrhage 1=one or two light lesions with hemorrhage 2=some light lesions with hemorrhage 3=some lesions with hemorrhage. […] 4=very serious lesions with hemorrhage. There were used three rats per each dosage and the sum of the scores was made.

[6] = in vivo; conditions: mouse, po
[7] = tested on: carragenin induced edema in the paw of rat; experiment: Carragenin induced edema in the paw of rat, 50% inhibiting oral dose; format: in vivo; conditions: for ED50: 1 hour before carrageenin, 3 to 4 hours after carrageenin
Description: The edema was induced by injecting the carrageenin (0.1 ml of the 1% suspension in physiological solution) in the plantar aponeurosis of the rear paw of the rat one hour after the oral administration of the tested substances; the edema inhibition was evaluated, 3 to 4 hours after the carrageenin injection, from the difference between the volumes of the paw before and after the carragenin injection with respect to a group of control animals.

[8] = Toxicity in the rat; conditions: in vivo
Description: In the rat too the toxicity of compound I is very low (4,500 mg/kg).

[9] = tested on: mouse; conditions: in vivo

CC(=O)Oc1ccccc1C(=O)O [Acetylsalicylic acid, acetylsalicylic acid]
Non injected paw, 18th day, inhibition % ([1]; 100 mg/kg os): 37% | Non injected paw, 18th day, volume ([1]; 100 mg/kg os): 2.10 | Non injected paw, 18th day, inhibition % ([1]; 200 mg/kg os): 47% | Non injected paw, 18th day, volume ([1]; 200 mg/kg os): 1.93 | Inhibition of the carrageenin induced edema ([2]; 50 mg/kg os): 12% | Inhibition of the carrageenin induced edema ([2]; 100 mg/kg os): 35% | Inhibition of the carrageenin induced edema ([2]; 200 mg/kg os): 43% | Inhibition %, injected paw (3rd day) ([3]; 100 mg/kg os): 30% | Inhibition %, non injected paw (14th day) ([3]; 100 mg/kg os): 33% | Paw volume, injected paw (3rd day) ([3]; 100 mg/kg os): 1.65 mL | Paw volume, non injected paw (14th day) ([3]; 100 mg/kg os): 1.49 mL | Inhibition %, injected paw (3rd day) ([3]; 200 mg/kg os): 40% | Inhibition %, non injected paw (14th day) ([3]; 200 mg/kg os): 63% | Paw volume, injected paw (3rd day) ([3]; 200 mg/kg os): 1.53 mL | Paw volume, non injected paw (14th day) ([3]; 200 mg/kg os): 1.26 mL | Acute gastric irritation score ([4]; 150 mg/kg os, 4 hours, sum of hemorrhage scores (0-4) of three rats): 7

COC(=O)c1ccccc1OC(=O)c1ccccc1Nc1cccc(C(F)(F)F)c1 [Compound I, N-m-trifluoromethyl-phenylanthranilate of O-methoxycarbonylphenyl]
Acute gastric irritation score ([5]; 25 mg/kg os): 1 | Acute gastric irritation score ([5]; 50 mg/kg os): 1 | Acute gastric irritation score ([5]; 100 mg/kg os): 2 | Acute gastric irritation score ([5]; 200 mg/kg os): 1 | Acute gastric irritation score ([5]; 400 mg/kg os): 1 | Acute gastric irritation score ([5]; 800 mg/kg os): 3 | Acute gastric irritation score ([5]; 1600 mg/kg os): 2 | Ulcerogenic / gastric irritating action (in words) ([5]; compared with reference drugs): highly less ulcerogenic than indomethacin and than acetylsalicylic acid | LD50 [6]: 9500 mg/kg and 22800 µmol/kg | Non injected paw, 18th day, inhibition % ([1]; 5 mg/kg os): 27% | Non injected paw, 18th day, volume ([1]; 5 mg/kg os): 2.16 | Non injected paw, 18th day, inhibition % ([1]; 10 mg/kg os): 46% | Non injected paw, 18th day, volume ([1]; 10 mg/kg os): 1.82 | Non injected paw, 18th day, inhibition % ([1]; 25 mg/kg os): 100% | Non injected paw, 18th day, volume ([1]; 25 mg/kg os): 1.04 | Activity in already developed arthritis (in words) ([1]; compared with reference drugs): more active than acetylsalicylic acid and than phenylbutazone | Inhibition of the carrageenin induced edema ([2]; 1 mg/kg os): 0% | Inhibition of the carrageenin induced edema ([2]; 1.5 mg/kg os): 24% | Inhibition of the carrageenin induced edema ([2]; 5 mg/kg os): 21% | Inhibition of the carrageenin induced edema ([2]; 10 mg/kg os): 34% | Inhibition of the carrageenin induced edema ([2]; 25 mg/kg os): 42% | Inhibition of the carrageenin induced edema ([2]; 50 mg/kg os): 52% | ED30 ([2]; Rattus norvegicus, po, os, dose for which a 30% inhibition is obtained, read-out: ED30 (approximately)): ~8 mg/kg | Activity in carrageenin induced edema (in words) ([2]; rat, oral, compared with reference drugs): higher than that of aspirin and phenylbutazone, and lower than that of indomethacin | ED50 [7]: 176 mg/kg and 420 µmol/kg | Anti-inflammatory activity (in words) ([7]; in terms of molar doses): like that of the flufenamic acid and higher than that of the methyl salicylate and that of the equimolar mixture of methyl salicylate and of flufenamic acid | LD50 [8]: 4500 mg/kg | Inhibition %, injected paw (3rd day) ([3]; 5 mg/kg os): 48% | Inhibition %, non injected paw (14th day) ([3]; 5 mg/kg os): 10% | Paw volume, injected paw (3rd day) ([3]; 5 mg/kg os): 1.5 mL | Paw volume, non injected paw (14th day) ([3]; 5 mg/kg os): 1.64 mL | Inhibition %, injected paw (3rd day) ([3]; 10 mg/kg os): 53% | Inhibition %, non injected paw (14th day) ([3]; 10 mg/kg os): 47% | Paw volume, injected paw (3rd day) ([3]; 10 mg/kg os): 1.53 mL | Paw volume, non injected paw (14th day) ([3]; 10 mg/kg os): 1.47 mL | Inhibition %, injected paw (3rd day) ([3]; 25 mg/kg os): 36% | Inhibition %, non injected paw (14th day) ([3]; 25 mg/kg os): 35% | Paw volume, injected paw (3rd day) ([3]; 25 mg/kg os): 1.79 mL | Paw volume, non injected paw (14th day) ([3]; 25 mg/kg os): 1.67 mL | Increase of the weight of the rats (in words) ([3]; index of poor toxicity): normal | Inhibiting effect in developing arthritis (in words) ([3]; rat, in vivo): strong inhibiting effect | Ulcerogenic action (in words) ([4]; rat, in vivo): highly less ulcerogenic than indomethacin and than acetylsalicylic acid | Acute toxicity (in words) [9]: relevantly less toxic than the reference substances as well as than their mixture

O=C(O)c1ccccc1Nc1cccc(C(F)(F)F)c1 [Flufenamic acid, flufenamic acid]
LD50 [6]: 875 mg/kg and 3100 µmol/kg | ED50 [7]: 112 mg/kg and 400 µmol/kg

COc1ccc2c(c1)c(CC(=O)O)c(C)n2C(=O)c1ccc(Cl)cc1 [Indomethacin, indomethacin]
Acute gastric irritation score ([5]; 40 mg/kg os): 5 | Non injected paw, 18th day, inhibition % ([1]; 1 mg/kg os): 38% | Non injected paw, 18th day, volume ([1]; 1 mg/kg os): 2.06 | Inhibition of the carrageenin induced edema ([2]; 5 mg/kg os): 40% | Inhibition %, injected paw (3rd day) ([3]; 1 mg/kg os): 39% | Inhibition %, non injected paw (14th day) ([3]; 1 mg/kg os): 32% | Paw volume, injected paw (3rd day) ([3]; 1 mg/kg os): 1.63 mL | Paw volume, non injected paw (14th day) ([3]; 1 mg/kg os): 1.55 mL

COC(=O)c1ccccc1O [Methyl salicylate, methyl salicylate]
LD50 [6]: 1160 mg/kg and 7600 µmol/kg | ED50 [7]: 289 mg/kg and 1900 µmol/kg

CCCCC1C(=O)N(c2ccccc2)N(c2ccccc2)C1=O [Phenylbutazone, phenylbutazone]
Non injected paw, 18th day, inhibition % ([1]; 25 mg/kg os): 46% | Non injected paw, 18th day, volume ([1]; 25 mg/kg os): 1.95 | Inhibition of the carrageenin induced edema ([2]; 50 mg/kg os): 34% | Inhibition %, injected paw (3rd day) ([3]; 25 mg/kg os): 39% | Inhibition %, non injected paw (14th day) ([3]; 25 mg/kg os): 42% | Paw volume, injected paw (3rd day) ([3]; 25 mg/kg os): 1.66 mL | Paw volume, non injected paw (14th day) ([3]; 25 mg/kg os): 1.52 mL
